Literature values, collected in US10751328B2, “Therapy for chronic idiopathic urticaria, anaphylaxis and angioedema” (priority 2013, dated 2020).
Values belong to the compound of their own block, whether it stands above or below them.

Tests used:
[1] = system: white blood cell counts (eosinophil, basophils); settings: ALS subjects, 150 mg twice daily up to 18 months, monthly CBCs; FIGS. 1 to 4 (prior art poster)
wheal and flare reaction = settings: versus histamine
[2] = dihydrochloride monohydrate salt, crystalline
[3] = system: chronic idiopathic urticaria symptoms; settings: patients with chronic idiopathic urticaria symptomatic despite approved doses of H1-antihistamines; 139 patients

Compound: CCCN[C@@H]1CCc2nc(N)sc2C1 [Dexpramipexole, (6R)-4,5,6,7-tetrahydro-N6-propyl-2,6 benzothiazole diamine]
effect on white blood cell counts [1]: reduce white blood cell counts, especially eosinophil and basophils

Compound: CCCCC/C=C\C\C=C/C=C/C=C/[C@@H](SC[C@H](NC(=O)CC[C@H](N)C(=O)O)C(=O)NCC(=O)O)[C@@H](O)CCCC(=O)O [LTC4, leukotriene C4]
potency relative to histamine in causing wheal and flare reaction (wheal and flare reaction): about 1,000 times

solubility in water [2]: extremely well soluble in water
Compound: CCCN[C@H]1CCc2nc(N)sc2C1 [pramipexole, (6S)-2-amino-4,5,6,7-tetrahydro-6-(propylamino)benzothiazole]

Compound: omalizumab: agent effective in chronic idiopathic urticaria through its reduction of FcεRI function in basophils and mast cells
effect on symptoms [3]: beneficial effects on symptoms
